Results taken from PMC6438731, “Extrasynaptic δ‐GABAA receptors are high‐affinity muscimol receptors” (Journal of Neurochemistry, 2019).
pKd: −log10 of the molar value. Read-outs that look alike come from different tables or passages of the source.

Tests used:
[1] = target: forebrain membranes of δKO mice (non‐δ‐GABAARs); assay: [^3H]muscimol binding kinetics, δKO forebrain membranes; set-up: species or system mouse
Description: WT and δKO forebrain and cerebellar membranes were prepared using a modification of the method of Squires and Saederup (2000) essentially as described by Uusi‐Oukari et al. (2014). […] forebrain along with midbrain region was homogenized into 10 mM Tris‐HCl, pH 8.0 buffer containing 2 mM EDTA, using an Ultra‐Turrax T25 (Janke & Kunkel IKA labortechnik) for 20 s at 9500 rpm. The homogenates were centrifuged at 20 000 g for 10 min at +4°C and the resulting pellets were washed three times by resuspension and re‐centrifugation with 10 mM Tris‐HCl, pH 8.5 buffer containing 0.2 M NaCl, and 5 mM EDTA. The resulting pellets were then suspended in ice‐cold H2O and centrifuged. The pellets were again washed three times with Tris, pH 8.5/NaCl/EDTA as described above. The resulting pellets were finally suspended in assay buffer consisting of 50 mM Tris‐base, pH adjusted to 7.4 with citric acid, and frozen at −70°C. Before a binding experiment, the suspension was thawed, centrifuged, and suspended in assay buffer.
(§1) The binding of [^3H]muscimol (5 nM) was measured in assay buffer at 22°C in a total volume of 300 μL. Triplicate technical replicates of mouse forebrain (190–215 μg protein), cerebellar (180–210 μg protein) or HEK cell (92–132 μg protein) membranes for each time point were incubated with shaking for various times (15 s–15 min) to measure association of the binding. […] The incubation was terminated by filtration of the samples with a Brandel Cell Harvester (model M‐24, Gaithersburg, MD, USA) onto Whatman GF/B filters (Whatman International Ltd., Maidstone, UK). The samples were rinsed twice with 4–5 mL of ice‐cold assay buffer. Filtration and rinsing steps took a total time of ~15 s. Air‐dried filters were immersed in 3 mL of Optiphase HiSafe 3 scintillation fluid (Wallac, Turku, Finland) and radioactivity determined in a Wallac model 1410 liquid scintillation counter (Wallac, Turku, Finland). The maximal binding disintegrations per minute (DPM) values (at 15 min in association) for recombinant studies with 5 nM [^3H]muscimol were between 700 and 2500 DPMs of specific binding (background subtracted). In native membranes, the maximal DPM values were between 2500 and 3000 for WTs and 1300–1500 for δKOs.
(§2) The tubes were mixed and incubations at 22°C were terminated at various time points (30 s – 30 min) as described above. Dissociation of [^3H]muscimol from recombinant receptors in HEK cell membranes was also measured at 0–4°C (on ice) to evaluate how fast [^3H]muscimol dissociates from receptors while washing the filter with ice‐cold assay buffer during filtration.

[2] = target: T1, α6β2γ2 recombinant GABAA receptor (Rattus norvegicus, UniProt P30191+P63138); assay: [^3H]muscimol binding kinetics, recombinant α6β2γ2 in HEK293 membranes
T1 construct: expressed in transfected cells; host or cells: HEK293 (ATCC CRL-1573), pRK5 plasmids, membranes
T1 sequence (P30191 20-453): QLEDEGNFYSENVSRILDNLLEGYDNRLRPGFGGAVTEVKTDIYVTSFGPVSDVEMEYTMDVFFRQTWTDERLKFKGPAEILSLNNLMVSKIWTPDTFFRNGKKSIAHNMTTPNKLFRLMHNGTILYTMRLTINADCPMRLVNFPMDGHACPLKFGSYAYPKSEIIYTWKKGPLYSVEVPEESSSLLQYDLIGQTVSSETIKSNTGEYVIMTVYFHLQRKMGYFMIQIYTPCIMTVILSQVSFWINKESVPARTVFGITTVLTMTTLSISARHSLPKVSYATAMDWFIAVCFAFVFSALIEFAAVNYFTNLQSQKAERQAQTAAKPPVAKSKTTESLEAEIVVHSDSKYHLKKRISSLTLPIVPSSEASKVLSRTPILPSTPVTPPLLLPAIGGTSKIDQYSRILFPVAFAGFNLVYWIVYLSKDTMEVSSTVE
T1 sequence (P63138 26-474): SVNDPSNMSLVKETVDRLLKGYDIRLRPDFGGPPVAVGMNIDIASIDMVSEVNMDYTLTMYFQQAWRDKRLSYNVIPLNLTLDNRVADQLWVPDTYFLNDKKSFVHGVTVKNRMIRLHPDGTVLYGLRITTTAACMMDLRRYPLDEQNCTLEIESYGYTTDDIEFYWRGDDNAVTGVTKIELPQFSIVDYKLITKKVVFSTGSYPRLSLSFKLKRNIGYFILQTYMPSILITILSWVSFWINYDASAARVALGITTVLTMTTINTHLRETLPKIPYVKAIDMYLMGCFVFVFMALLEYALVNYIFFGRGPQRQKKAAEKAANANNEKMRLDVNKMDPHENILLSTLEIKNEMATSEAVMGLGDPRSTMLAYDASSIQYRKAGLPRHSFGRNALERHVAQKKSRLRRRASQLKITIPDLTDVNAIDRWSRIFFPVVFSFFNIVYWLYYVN
T1 sequence (P18508 39-466 partner): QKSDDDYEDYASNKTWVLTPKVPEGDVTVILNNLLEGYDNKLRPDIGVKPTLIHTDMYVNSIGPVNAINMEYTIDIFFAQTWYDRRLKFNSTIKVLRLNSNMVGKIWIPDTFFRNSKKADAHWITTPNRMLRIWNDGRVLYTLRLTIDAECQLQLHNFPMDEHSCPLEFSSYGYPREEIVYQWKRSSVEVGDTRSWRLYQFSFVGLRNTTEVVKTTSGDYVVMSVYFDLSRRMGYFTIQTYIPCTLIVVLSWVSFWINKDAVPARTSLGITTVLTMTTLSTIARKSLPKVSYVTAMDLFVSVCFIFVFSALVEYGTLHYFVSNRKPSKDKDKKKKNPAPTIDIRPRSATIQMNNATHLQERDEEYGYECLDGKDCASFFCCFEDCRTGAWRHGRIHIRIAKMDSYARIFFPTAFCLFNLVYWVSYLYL
From the text: (§3) Human embryonic kidney (HEK) 293 cells (ATCC Cat# CRL‐1573; RRID: CVCL_0045; a commonly misidentified cell line by ICLAC; last authenticated by STR DNA profiling in December 2018) were transfected with rat cDNAs (α1, L08490; α6, L08495; β2, X15467; β3, X15468; γ2S, L08497; δ, L08496) in pRK5 plasmids under the control of the cytomegalovirus promoter (Uusi‐Oukari et al. 2000), using the calcium phosphate precipitation method essentially as described (Lüddens and Korpi 1997). The plasmids were used in 1 : 1 and 1 : 1 : 1 ratios for transfections containing 2 [(α1 or α6) + (β2 or β3)] or 3 [(α1 or α6) + (β2 or β3) + (γ2S or δ)] different subunits, respectively (5 μg of each plasmid DNA for a 10 cm plate). Mock transfection was done using 5 μg pRK5 plasmid backbone. The cells were harvested 48 h after transfection. Culture medium was removed and the cells were detached from the plates by pipetting in ice‐cold assay buffer containing 2 mM EDTA. The cells were homogenized (Ultra Turrax, 20 s at 9500 rpm), the homogenates centrifuged at 20 000 g for 10 min at +4°C, and washed once with the same buffer. The homogenates were finally suspended in assay buffer (1 mL/plate) and either used directly to binding assays or stored frozen at −70°C.
as §1, with “In native membranes, the maximal DPM values were between 2500 and 3000 for WTs and 1300–1500 for δKOs.” left out
as §2

[3] = target: T2, α1β2δ recombinant GABAA receptor (Rattus norvegicus, UniProt P62813+P63138); assay: [^3H]muscimol binding kinetics, recombinant α1β2δ in HEK293 membranes; conditions: room temperature (22°C)
T2 construct: expressed in transfected cells; host or cells: HEK293 (ATCC CRL-1573), pRK5 plasmids, membranes
T2 sequence (P62813 28-455): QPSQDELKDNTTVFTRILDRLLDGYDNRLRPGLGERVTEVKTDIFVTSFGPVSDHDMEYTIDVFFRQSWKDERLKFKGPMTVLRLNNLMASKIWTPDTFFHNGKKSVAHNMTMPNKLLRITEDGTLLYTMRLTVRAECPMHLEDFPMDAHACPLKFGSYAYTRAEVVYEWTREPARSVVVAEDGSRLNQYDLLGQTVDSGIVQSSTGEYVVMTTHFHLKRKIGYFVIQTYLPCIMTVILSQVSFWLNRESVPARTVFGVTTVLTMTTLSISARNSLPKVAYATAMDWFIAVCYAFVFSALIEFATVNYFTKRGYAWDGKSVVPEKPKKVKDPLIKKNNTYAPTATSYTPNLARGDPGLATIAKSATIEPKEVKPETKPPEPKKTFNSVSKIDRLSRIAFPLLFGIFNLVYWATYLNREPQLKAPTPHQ
T2 sequence (P63138 26-474): as the sequence (P63138 26-474) above
T2 sequence (P18506 25-449 partner): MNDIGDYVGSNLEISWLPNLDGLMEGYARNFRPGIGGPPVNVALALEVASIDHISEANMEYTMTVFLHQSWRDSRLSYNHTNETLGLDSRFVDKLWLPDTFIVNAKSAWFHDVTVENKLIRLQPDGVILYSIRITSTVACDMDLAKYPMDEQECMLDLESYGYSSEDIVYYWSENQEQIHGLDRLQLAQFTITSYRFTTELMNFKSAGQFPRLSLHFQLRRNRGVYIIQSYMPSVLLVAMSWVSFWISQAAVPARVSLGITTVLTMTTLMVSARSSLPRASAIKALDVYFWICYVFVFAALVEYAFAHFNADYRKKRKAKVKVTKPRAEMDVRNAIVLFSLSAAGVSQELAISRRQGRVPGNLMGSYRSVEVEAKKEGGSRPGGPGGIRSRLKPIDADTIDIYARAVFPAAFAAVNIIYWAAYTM
From the text: (§4) Human embryonic kidney (HEK) 293 cells (ATCC Cat# CRL‐1573; RRID: CVCL_0045; a commonly misidentified cell line by ICLAC; last authenticated by STR DNA profiling in December 2018) were transfected with rat cDNAs (α1, L08490; α6, L08495; β2, X15467; β3, X15468; γ2S, L08497; δ, L08496) in pRK5 plasmids under the control of the cytomegalovirus promoter (Uusi‐Oukari et al. 2000), using the calcium phosphate precipitation method essentially as described (Lüddens and Korpi 1997). The plasmids were used in 1 : 1 and 1 : 1 : 1 ratios for transfections containing 2 [(α1 or α6) + (β2 or β3)] or 3 [(α1 or α6) + (β2 or β3) + (γ2S or δ)] different subunits, respectively (5 μg of each plasmid DNA for a 10 cm plate). […]
(§5) The binding of [^3H]muscimol (5 nM) was measured in assay buffer at 22°C in a total volume of 300 μL. […] Air‐dried filters were immersed in 3 mL of Optiphase HiSafe 3 scintillation fluid (Wallac, Turku, Finland) and radioactivity determined in a Wallac model 1410 liquid scintillation counter (Wallac, Turku, Finland).
as §2

[4] = target: T3, α1β2γ2 recombinant GABAA receptor (Rattus norvegicus, UniProt P62813+P63138); assay: [^3H]muscimol binding kinetics, recombinant α1β2γ2 in HEK293 membranes
T3 construct: expressed in transfected cells; host or cells: HEK293 (ATCC CRL-1573), pRK5 plasmids, membranes
T3 sequence (P62813 28-455): as the sequence (P62813 28-455) above
T3 sequence (P63138 26-474): as the sequence (P63138 26-474) above
T3 sequence (P18508 39-466 partner): as the sequence (P18508 39-466 partner) above
From the text: as §3
as §1, with “Finland).” for “Finland). The maximal binding disintegrations per minute (DPM) values (at 15 min in association) for recombinant studies with 5 nM [^3H]muscimol were between 700 and 2500 DPMs of specific binding (background subtracted). In native membranes, the maximal DPM values were between 2500 and 3000 for WTs and 1300–1500 for δKOs.”
as §2

[5] = target: T4, α6β2 recombinant GABAA receptor (Rattus norvegicus, UniProt P30191+P63138); assay: [^3H]muscimol binding kinetics, recombinant α6β2 in HEK293 membranes; conditions: room temperature (22°C)
T4 construct: expressed in transfected cells; host or cells: HEK293 (ATCC CRL-1573), pRK5 plasmids, membranes
T4 sequence (P30191 20-453): as the sequence (P30191 20-453) above
T4 sequence (P63138 26-474): as the sequence (P63138 26-474) above
From the text: as §4
as §5, with “Finland). […]” for “Finland).”
as §2

[6] = target: T5, α6β2δ recombinant GABAA receptor (Rattus norvegicus, UniProt P30191+P63138); assay: [^3H]muscimol binding kinetics, recombinant α6β2δ in HEK293 membranes
T5 construct: expressed in transfected cells; host or cells: HEK293 (ATCC CRL-1573), pRK5 plasmids, membranes
T5 sequence (P30191 20-453): as the sequence (P30191 20-453) above
T5 sequence (P63138 26-474): as the sequence (P63138 26-474) above
T5 sequence (P18506 25-449 partner): as the sequence (P18506 25-449 partner) above
From the text: as §3, §1, §2

[7] = target: T6, α1β2 recombinant GABAA receptor (Rattus norvegicus, UniProt P62813+P63138); assay: [^3H]muscimol binding kinetics, recombinant α1β2 in HEK293 membranes; conditions: room temperature (22°C)
T6 construct: expressed in transfected cells; host or cells: HEK293 (ATCC CRL-1573), pRK5 plasmids, membranes
T6 sequence (P62813 28-455): as the sequence (P62813 28-455) above
T6 sequence (P63138 26-474): as the sequence (P63138 26-474) above
From the text: as §4, §5, §2

## NCc1cc(=O)[nH]o1 [[^3H]muscimol] [[Methylene‐^3H]muscimol]
[1]; calculated from k on and k off, read-out: apparent [^3H]muscimol affinities (K D) for non‐δ‐GABAARs
  pKd: ~9.00
[1]; forebrain membranes, 22°C, K D = koff/kon, read-out: K D
  pKd: 8.96
[1]; forebrain membranes, room temperature (22°C)
  k off: 1.67 ± 0.15 ^*** min^−1
[1]; forebrain membranes, room temperature (22°C), 5 nM [^3H]muscimol
  k on: 15 ± 3.1 × 10^8 ^** M^−1 × min^−1
[2]; 22°C, K D = koff/kon
  pKd: 8.80
[2]; +4 °C
  k off: 0.086 ± 0.010 ^, ^** min^−1
[2]; room temperature (22°C)
  k off: 0.98 ± 0.02 ^### ^, ^††† min^−1
[2]; room temperature (22°C), 5 nM [^3H]muscimol
  k on: 6.3 ± 0.5 × 10^8, ^### ^, ^††† M^−1 × min^−1
[3]
  k off: 0.18 ± 0.03 ^### min^−1
[4]; α1β2γ2, 0°C, approximated
  dissociation of [^3H]muscimol binding during the first 15 s after pre‐incubation: about 10%
[4]; α1β2γ2 in HEK293 membranes, 22°C, K D = koff/kon
  pKd: 8.80
[4]; α1β2γ2 in HEK293 membranes, +4 °C
  k off: 0.00587 ± 0.00015 s⁻¹
[4]; α1β2γ2 in HEK293 membranes, room temperature (22°C)
  k off: 0.0297 ± 0.003 s⁻¹
[4]; α1β2γ2 in HEK293 membranes, room temperature (22°C), 5 nM [^3H]muscimol
  k on: 11 ± 0.6 × 10^8 M^−1 × min^−1
[5]
  k off: 1.46 ± 0.05 ^††† min^−1
[6]; α6β2δ in HEK293 membranes, 22°C, K D = koff/kon
  pKd: 8.89
[6]; α6β2δ in HEK293 membranes, +4 °C
  k off: 0.015 ± 0.003 ^*** min^−1
[6]; α6β2δ in HEK293 membranes, room temperature (22°C)
  k off: 0.13 ± 0.03 ^### min^−1
[6]; α6β2δ in HEK293 membranes, room temperature (22°C), 5 nM [^3H]muscimol
  k on: 1.0 ± 0.1 × 10^8, ^### M^−1 × min^−1
[6]; α6β2δ vs α1β2γ2 and α6β2γ2, 22°C
  association rate constant kon lower when compared to γ2‐GABAARs: 6.3–11 fold
[6]; α6β2δ, 0°C, 30 min after start of the dissociation
  [^3H]muscimol still remaining bound: 70%
[7]
  k off: 0.49 ± 0.07 ^### min^−1
